Test results from the NIST ThermoML archive (doi:10.1021/je700260f).

Details: 323.15 K, Liquid, Vibrating tube method

FC(C(F)(F)F)C(F)(F)F [1,1,1,2,3,3,3-heptafluoropropane]
Details	mass density [kg/m3]
9744 kPa	1360.2
9763 kPa	1360.3
9782 kPa	1360.5
9800 kPa	1360.6
9817 kPa	1360.8
9836 kPa	1360.8
9857 kPa	1361.2
9876 kPa	1361.3
9894 kPa	1361.4
10348 kPa	1364.7
10377 kPa	1364.9
10394 kPa	1364.9
10416 kPa	1365.1
10433 kPa	1365.2
10451 kPa	1365.3
10468 kPa	1365.4
10492 kPa	1365.7
10512 kPa	1365.7
10532 kPa	1365.9
10553 kPa	1366
10577 kPa	1366.2
10595 kPa	1366.3
10749 kPa	1367.4
10766 kPa	1367.5
10786 kPa	1367.7
10804 kPa	1367.8
10828 kPa	1367.9
10845 kPa	1368.1
10864 kPa	1368.3
10894 kPa	1368.4
11387 kPa	1371.8
11407 kPa	1371.9
11425 kPa	1372
11446 kPa	1372.2
11463 kPa	1372.3
11483 kPa	1372.5
11501 kPa	1372.7
11519 kPa	1372.7
11540 kPa	1372.9
12697 kPa	1380.5
12717 kPa	1380.6
12774 kPa	1380.8
12791 kPa	1381
12809 kPa	1381.2
12835 kPa	1381.4
12849 kPa	1381.5
12876 kPa	1381.6
12893 kPa	1381.6
12913 kPa	1381.8
12933 kPa	1382
12950 kPa	1382.2
12971 kPa	1382.2
12984 kPa	1382.4
13009 kPa	1382.4
13183 kPa	1383.5
13201 kPa	1383.6
13222 kPa	1383.8
13245 kPa	1383.9
13732 kPa	1386.8
13757 kPa	1387.1
13777 kPa	1387.2
13803 kPa	1387.2
13826 kPa	1387.4
13851 kPa	1387.5
13891 kPa	1387.8
13911 kPa	1387.9
13940 kPa	1388.1
13964 kPa	1388.4
13981 kPa	1388.6
14001 kPa	1388.5
14024 kPa	1388.6
14045 kPa	1388.8
14066 kPa	1388.9
14089 kPa	1389.2
14106 kPa	1389.2
14126 kPa	1389.3
14223 kPa	1390
14245 kPa	1390
14268 kPa	1390.2
14290 kPa	1390.1
14307 kPa	1390.4
14331 kPa	1390.5
14346 kPa	1390.7
14525 kPa	1391.7
14547 kPa	1392
14564 kPa	1392
14584 kPa	1392
14606 kPa	1392.1
14624 kPa	1392.3
14649 kPa	1392.4
14665 kPa	1392.5
14689 kPa	1392.6
14710 kPa	1392.9
15240 kPa	1396
15711 kPa	1398.5
15733 kPa	1398.8
15763 kPa	1398.9
15783 kPa	1399.1
15811 kPa	1399.3
15834 kPa	1399.3
15857 kPa	1399.5
15884 kPa	1399.6
15907 kPa	1399.8
15931 kPa	1400
15952 kPa	1399.9
15979 kPa	1400.1
15995 kPa	1400.2
16018 kPa	1400.3
16047 kPa	1400.5
16072 kPa	1400.6
16209 kPa	1401.3
16238 kPa	1401.5
16257 kPa	1401.7
16276 kPa	1401.7
16300 kPa	1401.9
16318 kPa	1402
16339 kPa	1402.1
16364 kPa	1402.3
16385 kPa	1402.4
16407 kPa	1402.6
16429 kPa	1402.6
16451 kPa	1402.8
16474 kPa	1402.8
16502 kPa	1403
16520 kPa	1403.2
16544 kPa	1403.3
16566 kPa	1403.2
16584 kPa	1403.6
16603 kPa	1403.7
16629 kPa	1403.6
16649 kPa	1403.9
16677 kPa	1404.1
16763 kPa	1404.5
16808 kPa	1404.8
16827 kPa	1404.9
16854 kPa	1405.1
16872 kPa	1405
16898 kPa	1405.2
16920 kPa	1405.3
16947 kPa	1405.5
16978 kPa	1405.6
16998 kPa	1405.8
17027 kPa	1406
17050 kPa	1406
17073 kPa	1406.2
17097 kPa	1406.2
17120 kPa	1406.4
17141 kPa	1406.4
17170 kPa	1406.7
17197 kPa	1406.8
17220 kPa	1406.9
17330 kPa	1407.5
17378 kPa	1407.6
17898 kPa	1410.5
17952 kPa	1410.9
17976 kPa	1411.1
17998 kPa	1411.2
18024 kPa	1411.4
18049 kPa	1411.4
18081 kPa	1411.6
18105 kPa	1411.8
18129 kPa	1411.7
18160 kPa	1412
18184 kPa	1412.1
18240 kPa	1412.4
18317 kPa	1412.9
18547 kPa	1414
18567 kPa	1414.1
18596 kPa	1414.3
18614 kPa	1414.3
18862 kPa	1415.5
18885 kPa	1415.8
18905 kPa	1415.8
18929 kPa	1416
18952 kPa	1416.1
18981 kPa	1416.2
19007 kPa	1416.4
19162 kPa	1417
19197 kPa	1417.4
20153 kPa	1422
20175 kPa	1422.2
20203 kPa	1422.2
20225 kPa	1422.4
20251 kPa	1422.6
20283 kPa	1422.7
20313 kPa	1422.8
20340 kPa	1422.8
20370 kPa	1423.2
20404 kPa	1423.3
20429 kPa	1423.4
20481 kPa	1423.6
21768 kPa	1429.8
21806 kPa	1430
21829 kPa	1430.1
21855 kPa	1430
21886 kPa	1430.3
21913 kPa	1430.5
21936 kPa	1430.6
21971 kPa	1430.7
22991 kPa	1435.4
23635 kPa	1438.4
23664 kPa	1438.4
23690 kPa	1438.6
23714 kPa	1438.6
23750 kPa	1438.7
